Data: a compilation of properties of binary mixtures (doi:10.1524/zpch.2013.0328)

Test: xn = mol fraction of the nth substance listed
Settings: 100 kPa

CC(C)C[P+](C)(CC(C)C)CC(C)C.Cc1ccc(S(=O)(=O)[O-])cc1 + O
viscosity [mPa·s]
Settings	301.15 K	313.15 K	323.15 K	333.15 K	343.15 K	353.15 K
x1 = 0.4387	264	131	–	47	–	24
x1 = 0.9022	–	887	423	–	126	–

CC(CC(C)(C)C)CP(=O)([O-])CC(C)CC(C)(C)C.CCCCCCCCCCCCCC[P+](CCCCCC)(CCCCCC)CCCCCC + O
viscosity [mPa·s]
Settings	298.15 K	303.15 K	313.15 K	323.15 K	333.15 K	343.15 K	353.15 K
x1 = 0.1299	–	105	65	42	29	22	16
x1 = 0.7942	1004	757	439	–	170	111	78

CCCCCCCCCCCCCC[P+](CCCC)(CCCC)CCCC.CCCCCCCCCCCCc1ccc(S(=O)(=O)[O-])cc1 + O
viscosity [mPa·s]
Settings	298.15 K	303.15 K	313.15 K	323.15 K	333.15 K	343.15 K	353.15 K
x1 = 0.3452	506	365	197	–	74	54	40
x1 = 0.892	–	–	1477	750	409	238	–

CCCCCCCCCCCCCC[P+](CCCCCC)(CCCCCC)CCCCCC.N#C[N-]C#N + O
viscosity [mPa·s]
Settings	303.15 K	313.15 K	323.15 K	333.15 K	343.15 K	353.15 K
x1 = 0.551	138	86	53	40	28	22
x1 = 0.8444	–	196	123	82	56	41

CCCCCCCC[N+](C)(CCCCCCCC)CCCCCCCC.O=S(=O)([N-]S(=O)(=O)C(F)(F)F)C(F)(F)F + O
x1 = 0.8467
Settings	viscosity [mPa·s]
298.15 K	601
303.15 K	426
323.15 K	144
333.15 K	92
353.15 K	46

CC[n+]1ccn(C)c1.O=S(=O)([N-]S(=O)(=O)C(F)(F)F)C(F)(F)F + O
x2 = 0.0086
Settings	viscosity [mPa·s]
299.15 K	33
303.15 K	28
313.15 K	22
323.15 K	18
333.15 K	14
343.15 K	12
